Reference: publication PMC9636582 (The Journal of Biological Chemistry, 2022)

Experiments:
Format in all cases: cell-based
VP16-PPARα / GAL4-SRC-1 = biological target: T1, VP16-PPARα / GAL4-SRC-1 (Homo sapiens, UniProt Q07869); assay: mammalian two-hybrid assay, VP16-PPARα and coactivator GAL4-SRC-1; conditions: 30 μM fatty acids, 1 μM GW7647, HEK293 cells, Fig. 3B
T1 construct: expressed in transfected cells; host or cells: HEK293
T1 sequence (Q07869 1-468): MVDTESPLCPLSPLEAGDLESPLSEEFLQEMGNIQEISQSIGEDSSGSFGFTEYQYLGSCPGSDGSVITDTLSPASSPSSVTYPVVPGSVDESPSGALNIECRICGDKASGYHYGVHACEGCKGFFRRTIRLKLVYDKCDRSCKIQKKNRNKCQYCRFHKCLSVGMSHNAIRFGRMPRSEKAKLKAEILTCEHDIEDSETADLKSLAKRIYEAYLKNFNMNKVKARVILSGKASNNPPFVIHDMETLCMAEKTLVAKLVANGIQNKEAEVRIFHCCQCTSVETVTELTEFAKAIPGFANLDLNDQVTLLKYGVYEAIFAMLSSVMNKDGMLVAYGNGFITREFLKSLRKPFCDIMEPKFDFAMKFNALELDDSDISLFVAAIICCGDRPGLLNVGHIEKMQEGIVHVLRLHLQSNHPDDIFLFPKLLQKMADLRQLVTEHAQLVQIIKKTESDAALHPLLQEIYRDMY
T1 sequence (Q15788 595-771 partner limits assumed): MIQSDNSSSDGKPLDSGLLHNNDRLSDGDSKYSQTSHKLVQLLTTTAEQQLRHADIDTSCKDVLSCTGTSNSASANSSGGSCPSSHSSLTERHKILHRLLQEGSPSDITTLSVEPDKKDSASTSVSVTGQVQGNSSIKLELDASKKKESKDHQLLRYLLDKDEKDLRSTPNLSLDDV

VP16-PPARδ / GAL4-SRC-1 = biological target: T2, VP16-PPARδ / GAL4-SRC-1 (Homo sapiens, UniProt Q03181); assay: mammalian two-hybrid assay, VP16-PPARδ and coactivator GAL4-SRC-1; conditions: 30 μM fatty acids, 100 nM GW1516, HEK293 cells, Fig. 3A
T2 construct: expressed in transfected cells; host or cells: HEK293
T2 sequence (Q03181 1-441): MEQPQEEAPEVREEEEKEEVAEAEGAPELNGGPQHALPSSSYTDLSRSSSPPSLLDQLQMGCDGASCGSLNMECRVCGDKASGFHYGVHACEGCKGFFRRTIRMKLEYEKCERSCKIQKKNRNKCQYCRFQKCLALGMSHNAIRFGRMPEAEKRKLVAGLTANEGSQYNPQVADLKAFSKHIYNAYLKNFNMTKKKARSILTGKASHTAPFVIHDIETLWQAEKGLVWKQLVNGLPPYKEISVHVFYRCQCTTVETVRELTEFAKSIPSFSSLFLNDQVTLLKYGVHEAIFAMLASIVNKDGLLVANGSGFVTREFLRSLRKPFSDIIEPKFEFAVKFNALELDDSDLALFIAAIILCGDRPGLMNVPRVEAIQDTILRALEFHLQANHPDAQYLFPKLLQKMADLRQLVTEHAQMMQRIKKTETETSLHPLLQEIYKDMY
T2 sequence (Q15788 595-771 partner limits assumed): T1 sequence (Q15788 595-771 partner limits assumed)

full-length PPARδ = biological target: T3, full-length PPARδ (Homo sapiens, UniProt Q03181); assay: full-length PPARδ PPRE luciferase reporter assay in HEK293 cells; conditions: Fig. 1C
T3 construct: expressed in transfected cells; host or cells: HEK293
T3 sequence (Q03181 1-441): T2 sequence (Q03181 1-441)
Text: Luciferase activities were normalized to β-galactosidase activities.

GAL4-PPARα LBD = biological target: T4, GAL4-PPARα LBD (Homo sapiens, UniProt Q07869); assay: GAL4-PPARα LBD luciferase reporter assay in HEK293 cells; conditions: GAL4-PPARα LBD, calculated from luciferase activity with Quest Graph EC50 Calculator
T4 construct: chimeric receptors containing the LBD of various NRs; expressed in transfected cells; host or cells: HEK293
T4 sequence (Q07869 239-466 limits assumed): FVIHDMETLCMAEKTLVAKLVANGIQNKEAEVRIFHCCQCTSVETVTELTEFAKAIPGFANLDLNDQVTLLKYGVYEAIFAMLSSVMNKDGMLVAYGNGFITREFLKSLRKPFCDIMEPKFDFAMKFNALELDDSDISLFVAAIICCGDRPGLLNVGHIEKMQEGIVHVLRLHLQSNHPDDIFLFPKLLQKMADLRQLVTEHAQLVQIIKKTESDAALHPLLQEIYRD

[1] = system: human intestinal organoids; assay: fatty acid β-oxidation activity in living organoids (FAOBlue); conditions: organoids pretreated with 500 μM oleic acid 48 h, then 1 μM GW1516 or 30 μM fatty acids 24 h
[2] = system: human intestinal organoids; assay: intracellular triglyceride in human intestinal organoids; conditions: organoids pretreated with 500 μM oleic acid 48 h, then 1 μM GW1516 or 30 μM fatty acids 24 h

Row | SMILES | recruitment of coactivator SRC-1 to PPARα (VP16-PPARα / GAL4-SRC-1) | recruitment of coactivator SRC-1 to PPARδ (VP16-PPARδ / GAL4-SRC-1) | transactivation of full-length PPARδ (in words) (full-length PPARδ) | EC50 (GAL4-PPARα LBD) | fatty acid β-oxidation activity [1] | intracellular triglyceride levels [2]
1 | CCCCCC(=O)CCC=CCC=CCCCCC(=O)O [γKetoD, 13-oxo-cis-6,cis-9-octadecadienoic acid] | induced coactivator-recruitment | induced coactivator-recruitment | activated PPARδ potently | 4.14 µM | enhanced fatty acid β-oxidation | reduced intracellular triglyceride accumulation
2 | CCCCCC(O)CCC=CCC=CCCCCC(=O)O (stereo not drawn) [γHYD, 13-hydroxy-cis-6,cis-9-octadecadienoic acid] | induced coactivator-recruitment | induced coactivator-recruitment | activated PPARδ potently | 2.84 µM | enhanced fatty acid β-oxidation | reduced intracellular triglyceride accumulation
3 | CCCCC/C=C\C/C=C\C/C=C\CCCCC(=O)O [GLA, γ-linolenic acid, reference compound] | not | not | not | 11 µM | not | not
